Patent US10201507B2, “Modulators of intracellular chloride concentration for treating fragile X syndrome” (NEUROCHLORE, priority 2012, dated 2019)
Entries after “also recorded” stand apart in the source; their conditions may differ.

Assays:
hippocampal slices = assay: Extracellular field potentials / spike frequency in hippocampal slices at P15 on isoguvacine; assay type: cell-based, mouse; conditions: for normalized spike frequency: P15, isoguvacine (10 μM)
Text: Recording were made in the hippocampal slices using tungsten wire electrodes (diameter: 50 μm, California Fine Wire, Grover Beach, Calif.) and a low-noise multichannel DAM-8A amplifiers (WPI, GB; […]; gain: ×1000). The signals were digitized using an analogue-to-digital converter (Digidata 1440A, Axon Instruments, USA). pCLAMP 10.1, Clampfit 10.1 (Axon Instruments, USA), MiniAnalysis 6.03 (Synaptosoft, Decatur, Calif.) and Origin 7.5 (Microcal Software, USA) programs were used for the acquisition and analysis of the synaptic activities. Sampling interval per signal was 100 microseconds (10 kHz).
To test whether depolarizing actions of GABA were associated with neuronal excitation, the effect of the GABAA receptor agonist isoguvacine was tested. […] To test whether maternal treatment with bumetanide before delivery switches the action of GABA from excitatory to inhibitory in offsprings at P15, pregnant females were treated orally 1 day before delivery with bumetanide (2-2.5 mg/kg in drinking water) and juvenile offspring neurons recorded at P15. […] Therefore, excitatory actions of GABA during delivery produce long term deleterious effects on electrophysiological parameters of FXS juvenile neurons. In FXS mice, GABAergic inputs are excitatory and contribute to hyperexcitability of the network. Bumetanide decreases [Cl^−]i and consequently reduces contribution of excitatory GABAergic inputs in the overall network activity.

CA3 pyramidal cells = assay: Single GABAA channel recordings of driving force of GABA (DFGABA) in hippocampal slices, drug applied to slice; assay type: cell-based, mouse; conditions: FXS neurons at P0 (birth); oxytocin 1 μM
Protocol: Mice lacking Fmr1 (referred to as Fmr1^−/−) were bred in our animal facility. […] For all experiments, Fmr1^−/− mice were used with wild-type littermates as a control group. The offspring were used for experiments at E18, P0, P2, P4, P7, P9, P15 and P30. Experiments were carried out on offspring of either sex and in a blind manner at E18 and P0.
Experiments were performed on fetuses and neonatal wild type and Fragile X mice from the embryonic day […] to the postnatal day P38 (term is E21). All of the research was performed in compliance with the national guidelines on human care and use of laboratory animals and approved by INSERM.
Hippocampal slices (300-500 μm thick) were prepared using a Microm tissue slicer (International GmbH, Germany) as described previously (Tyzio et al., 2006, 2008). Slices were kept in oxygenated (95% O2/5% CO2) artificial cerebrospinal fluid (ACSF) of the following composition (in mM): NaCl 126, KCl 3.5, CaCl2 2.0, MgCl2 1.3, NaHCO3 25, NaH2PO4 1.2 and glucose 11 (pH 7.4) at room temperature (20-22° C.) at least 1 hour before use.
For recordings, slices were placed into a conventional fully submerged chamber superfused with ACSF at a rate of 2-3 ml/min at room temperature. Patch clamp recordings from visually identified CA3 pyramidal cells in cell-attached configuration were performed using EPC-10 amplifier (HEKA Elektronik Dr. Schulze GmbH, Lambrecht/Pfalz, Germany). Patch pipette solution for recordings of single GABAA channels contained (in mM): NaCl 120, KCl 5, TEA-Cl 20, 4-aminopyridine 5, CaCl2 0.1, MgCl2 10, glucose 10, Hepes-NaOH 10 buffered to pH 7.2-7.3 and GABA 2 μM. Analysis of currents through single channels and current-voltage relationships were performed using Clampfit 9.2 (Axon Instruments, Union City, Calif.). Recordings were digitized (10 kHz) online with Digidata-1200 interface card (Axon Instruments, Union City, Calif.) and analyzed offline with Axon package, MiniAnalysis (S (Synaptsoft, Decatur, Ga.), and Origin (Microcal Software, Northampton, Mass.). […]

## O=C(O)C1=CCNCC1 [isoguvacine]
Hippocampal slices; FXS mice
  normalized spike frequency: 165.8±13.5%
Hippocampal slices; WT mice
  normalized spike frequency: 67.9±6.1%
Hippocampal slices; naive neurons, P15, isoguvacine 2 μM
  Effect on field potential recordings (in words): inhibited or did not affect field potential recordings

## CC[C@H](C)[C@@H]1NC(=O)[C@H](Cc2ccc(O)cc2)NC(=O)[C@@H](N)CSSC[C@@H](C(=O)N2CCC[C@H]2C(=O)N[C@@H](CC(C)C)C(=O)NCC(N)=O)NC(=O)[C@H](CC(N)=O)NC(=O)[C@H](CCC(N)=O)NC1=O [oxytocin]
CA3 pyramidal cells
  Effect on DFGABA (in words): shift it to hyperpolarization; also recorded: shifted DFGABA
